From publication PMC10515640, “Structure-Based Optimization of Covalent, Small-Molecule Stabilizers of the 14-3-3σ/ERα Protein–Protein Interaction from Nonselective Fragments” (Journal of the American Chemical Society, 2023)

Experiments:
14-3-3σ/ERα [1] = target: T1, 14-3-3σ/ERα (Homo sapiens, UniProt P03372+P31947); experiment: Fluorescence anisotropy protein titration, FAM-labeled ERα peptide; format: binding; conditions: 10 nM FAM-ERα peptide, versus DMSO reference
T1 construct: The 14-3-3 σ isoform (full-length for mass spectrometry and fluorescence anisotropy assays, ΔC for crystallography); made in house; host or cells: E. coli Rosetta 2(DE3)pLysS, pPROEX HTb vector
Description: To evaluate compound-mediated stabilization of the 14-3-3σ/ERα complex directly, FA protein titrations were performed at a saturating concentration of compound. FA protein titrations allowed the quantification of the cooperative effect by comparing the apparent dissociation constants (appKD) of the binary and ternary complexes. 14-3-3σ was titrated into 10 nM FAM-labeled ERα peptide in the presence of DMSO or 100 μM of the compounds (Table S4). […]
diluted in buffer (10 mM HEPES, pH 7.5, 150 mM NaCl, 0.1% Tween20, 1 mg/mL Bovine Serum Albumin (BSA; Sigma-Aldrich). Final DMSO in the assay was always 1%. […]
Protein titrations were made by titrating 14-3-3σ in a 2-fold dilution series (starting at 300 µM) to a mix of fluorescein-labeled peptide (10 nM) and DMSO or compound (100 µM). Fluorescence anisotropy measurements were performed after overnight incubation at room temperature. […]
Wells containing only FAM-peptide were used to set as G-factor at 35 mP. Data reported are at endpoint. EC50 and apparent Kd values were obtained from fitting the data with a four-parameter logistic model (4PL) in GraphPad Prism 7 for Windows. Data was obtained and averaged based on either three (compound titrations) or two (protein titrations) independent experiments.

14-3-3σ = target: T2, 14-3-3σ (Homo sapiens, UniProt P31947); experiment: Mass spectrometry dose response, compound binding to 14-3-3σ in the absence of peptide (apo); conditions: 100 nM compound, 100 nM 14-3-3σ
T2 construct: The 14-3-3 σ isoform (full-length for mass spectrometry and fluorescence anisotropy assays, ΔC for crystallography); made in house; host or cells: E. coli Rosetta 2(DE3)pLysS, pPROEX HTb vector
T2 sequence (P31947 1-248): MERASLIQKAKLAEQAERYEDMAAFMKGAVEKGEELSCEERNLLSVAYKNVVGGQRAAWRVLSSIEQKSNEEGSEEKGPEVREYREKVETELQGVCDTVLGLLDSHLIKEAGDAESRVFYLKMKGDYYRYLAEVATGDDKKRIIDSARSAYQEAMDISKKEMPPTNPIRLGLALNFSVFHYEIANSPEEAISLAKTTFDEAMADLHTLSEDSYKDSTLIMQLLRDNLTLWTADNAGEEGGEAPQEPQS
Procedure, shortened: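 Covalent binding of compounds to Cys38 of full-length wild type human 14-3-3σ (100 nM) was measured by LC-MS without peptide present. Compounds from 50 mM DMSO stocks were serially diluted 3-fold and 1000 nl transferred to plates in TRIS buffer (10 mM, pH 8.0), 50 μl per well. Samples were desalted on a BEH-C4 column and analysed on a Xevo G2-XS Q-Tof at several time points.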

14-3-3σ/ERα [2] = target: T1, 14-3-3σ/ERα; experiment: Mass spectrometry dose response, compound binding to 14-3-3σ in the presence of ERα phosphopeptide; conditions: 100 nM compound, 100 nM 14-3-3σ, ERα-peptide 2 µM
Procedure, shortened: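 Covalent labeling of Cys38 on 14-3-3σ was tracked by LC-MS on a Waters Acquity UPLC/Xevo G2-XS Q-Tof, with samples desalted on a Protein BEH-C4 column. Full-length wild type 14-3-3σ (100 nM) plus ERα phosphopeptide was mixed with compound in 10 mM TRIS, pH 8.0, at 50 μl per well. Percent bound was measured at several time points.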

14-3-3σ/C-RAF [3] = target: T3, 14-3-3σ/C-RAF (Homo sapiens, UniProt P31947); experiment: Mass spectrometry dose response, compound binding to 14-3-3σ in the presence of C-RAF phosphopeptide; conditions: 100 nM compound, 100 nM 14-3-3σ, C-RAF peptide 18 µM
T3 construct: The 14-3-3 σ isoform (full-length for mass spectrometry and fluorescence anisotropy assays, ΔC for crystallography); made in house; host or cells: E. coli Rosetta 2(DE3)pLysS, pPROEX HTb vector
T3 sequence (P31947 1-248): T2 sequence (P31947 1-248)
Procedure, shortened: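 Covalent binding of compounds to the native Cys38 of 14-3-3σ was monitored by LC-MS on a Waters Acquity UPLC/Xevo G2-XS Q-Tof, with samples desalted on a BEH-C4 column. Full-length wild type 14-3-3σ (100 nM) with C-RAF peptide in TRIS buffer (10 mM, pH 8.0) was incubated with compound dose series at room temperature.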

14-3-3σ/ERα [4] = target: T1, 14-3-3σ/ERα; experiment: Fluorescence anisotropy compound titration, FAM-labeled ERα peptide; format: binding; conditions: 10 nM ERα-FAM labeled peptide, 1 µM 14-3-3σ, overnight incubation (24 h); read-out: EC50 value ERα (FA compound titration)
Procedure, shortened: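 Fluorescence anisotropy compound titration measuring stabilization of the 14-3-3σ/ERα interaction: compounds were titrated in a 2-fold dilution series (starting at 500 or 1000 µM) into a mix of 10 nM fluorescein-labeled ERα peptide and 1 µM 14-3-3σ (about EC25 of the complex) in HEPES buffer with 1% DMSO, read after overnight incubation at room temperature; EC50 from 4PL fitting.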

14-3-3σ/C-RAF [5] = target: T3, 14-3-3σ/C-RAF; experiment: Fluorescence anisotropy compound titration, FAM-labeled C-RAF peptide; format: binding; conditions: 10 nM C-RAF-FAM labeled peptide, 5 µM 14-3-3σ, overnight incubation; read-out: EC50 value C-RAF (FA compound titration)
Procedure, shortened: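 A fluorescence anisotropy compound titration measured how compounds stabilize binding of 14-3-3σ to a fluorescein-labeled C-RAF peptide. Compounds were diluted 2-fold, from 500 or 1000 µM, into 10 nM labeled peptide with 5 µM 14-3-3σ, roughly its EC25, in HEPES buffer with 1% DMSO. Plates were read after overnight incubation at room temperature. EC50 values came from 4PL fits over three independent experiments.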

SMILES	X Fold stabilization (100 µM compound) of 14-3-3σ/ERα (14-3-3σ/ERα [1])	Percentage (%) bound of compound to 14-3-3σ, APO 1h (14-3-3σ)	Percentage (%) bound of compound to 14-3-3σ, APO 8h (14-3-3σ)	Percentage (%) bound of compound to 14-3-3σ, APO 16h (14-3-3σ)	Percentage (%) bound of compound to 14-3-3σ, APO 24h (14-3-3σ)	Percentage (%) bound of compound to 14-3-3σ, ERα 1h (14-3-3σ/ERα [2])	Percentage (%) bound of compound to 14-3-3σ, ERα 8h (14-3-3σ/ERα [2])	Percentage (%) bound of compound to 14-3-3σ, ERα 16h (14-3-3σ/ERα [2])	Percentage (%) bound of compound to 14-3-3σ, ERα 24h (14-3-3σ/ERα [2])	Percentage (%) bound of compound to 14-3-3σ, CRAF 1h (14-3-3σ/C-RAF [3])	Percentage (%) bound of compound to 14-3-3σ, CRAF 8h (14-3-3σ/C-RAF [3])	Percentage (%) bound of compound to 14-3-3σ, CRAF 24h (14-3-3σ/C-RAF [3]; 24h)	Percentage (%) bound of compound to 14-3-3σ, CRAF 24h (14-3-3σ/C-RAF [3]; head prints 24h)	EC50 (14-3-3σ/ERα [4])	EC50 (14-3-3σ/C-RAF [5])
C=CC(C)(C)OCC1OC(OC2C3=C(C(C)COC(C)=O)CC(O)C3(C)C=C3C(COC)CCC3C(C)C2O)C(O)C(OC(C)=O)C1O (stereo not shown) [FC-A, Fusicoccin-A, reference compound]	166 fold	–	–	–	–	–	–	–	–	–	–	–	–	–	–
NC1CCC(Oc2ccc(Cl)cc2)(C(=O)N2CCC(CNC(=O)CCl)CC2)CC1 (stereo not shown) [compound 135]	–	0.8%	0.9%	1.8%	2.4%	11.3%	22.2%	42.2%	64.2%	0.5%	1.8%	3.4%	2.6%	37 ± 5 µM	> 150 µM
O=C(CCl)N1CC2(CCN(C(=O)C3(Nc4ccc(Cl)cc4)CCOCC3)CC2)C1 [compound 160]	–	0%	0%	1.0%	5.8%	6.9%	8.6%	48.4%	76.6%	0.4%	1.9%	8.4%	3.8%	16 ± 1 µM	> 150 µM
O=C(CCl)N1CCC2(CC1)CN(C(=O)C1(Nc3ccc(Cl)cc3)CCOCC1)C2 [compound 161]	–	0%	0%	0.5%	1.0%	4.7%	7.8%	14.9%	39.8%	0%	0.6%	2.1%	1.0%	22 ± 1 µM	> 150 µM
O=C(CCl)NCC1CC2(CCN(C(=O)C3(Nc4ccc(Cl)cc4)CCOCC3)CC2)C1 [compound 174]	–	1.0%	1.0%	1.5%	3.0%	5.0%	5.0%	8.4%	41.4%	0.6%	0.7%	2.1%	1.6%	97 ± 9 µM	> 150 µM
O=C(CCl)N1CCC2(CC1)CC(CNC(=O)C1(Nc3ccc(Cl)cc3)CCOCC1)C2 [compound 175]	–	1.9%	5.4%	10.6%	16.7%	21.7%	39.4%	64.1%	87.3%	2.4%	6.0%	17.4%	9.6%	15 ± 2 µM	> 150 µM
CC1(C)CC(Nc2ccc(Cl)cc2)(C(=O)N2CCC(CNC(=O)CCl)CC2)CC(C)(C)O1 [compound 179]	–	0%	0%	0.3%	0.4%	1.5%	3.0%	6.4%	11.8%	0%	0%	1.0%	0%	23 ± 2 µM	> 150 µM
